Laboratory results taken from US8710068B2, “Method of treating cancer using a survivin inhibitor” (The Trustees Of The University Of Pennsylvania, priority 2009, dated 2014).

Assays:
[1] = test system: HCT116(p53+/+) cells; assay: MTT viability assay, HCT116(p53+/+); format: cell-based; settings: 48 hours
Procedure: FIG. 4 illustrates the effects of S12 on proliferation of p53-positive and p53-negative cancer cells. (A) HCT116(p53+/+) or HCT116(p53−/−) cells were treated with DMSO or S12 at the indicated concentrations for 48 hours. The percentage of viable cells was evaluated by MTT assay.
Thus, inhibition of cell proliferation by S12 is independent of p53 status.

[2] = test system: HeLa cells; assay: Immunofluorescence microscopy of mitosis and spindle formation, HeLa; format: cell-based, human
Procedure: FIG. 8 illustrates the effect of S2 on mitotic spindle formation. HeLa cells were treated with S2 or DMSO for 15 hours. The cells were then fixed and subjected to immunostaining using the anti-β-Tubulin (green) and the anti-Survivin (red). Representative fluorescent microscopy images are shown. Note that short microtubule bundles form in S2-treated cells.
FIG. 9 illustrates the effect of S12 on mitosis. (A) HeLa cells were treated with S12, S2 or DMSO for 15 hours. The cells were then fixed and subjected to immunostaining using antibodies specific for Aurora B (green) and Survivin (red). DNA was stained with DAPI. Chromosome misalignment is indicated with the arrowheads. (B) Percentage of S12-treated cells in mitosis, in metaphase, in anaphase/telophase, or with misaligned chromosomes. (C) Percentage of S2-treated cells in mitosis, in metaphase, in anaphase/telophase, or with misaligned chromosomes. (D) HeLa cells were treated with S12 (10 μg/ml) or DMSO (control) for 15 hours. Cells were examined by PI staining of DNA content by FACS analysis.
FIG. 17 illustrates (A) FACS analysis of DNA content of HeLa cells treated with SBDO3. Note the accumulation of cells at the G2/M stage. Cell death was also observed (sub-G1 population); (B) Immuno-fluorescence microscopy analysis of cell treated with SBDO3. Note that the microtubule bundles of the mitotic spindle are disorganized. The chromosomes are not aligned properly and cells cannot go through metaphase.
FIG. 19 illustrates immunofluorescence studies of Survivin localization. (A) Untreated HeLa cells were subjected to immunostaining using a monoclonal anti-beta-Tubulin antibody (green) or a polyclonal anti-Survivin antibody (red). Images of cells at various stages of mitosis are shown. (B) HeLa cells were treated with S2 for 6 hours. Cells were immunostained with anti-beta-Tubulin antibody (green) or a polyclonal anti-survivin antibody (red). Note that localization of Survivin to the midbody was not affected by S2.
The effect of S2 and its analogs on the progression of cell cycle was examined by immunofluorescence microscopy. HeLa cells were plated on coverglass and treated with the Survivin-targeting compound S2 (10 μg/ml) or with the solvent DMSO alone for 15 hours. Cells were stained with the anti-β-Tubulin antibody (green) and anti-Survivin antibody (red). S2 can block cell division at the early stage of mitosis (FIG. 8). […] The microtubules in this case are very short, with one end attached to the centrosome and the other end to the kinetochore of the chromosomes (FIG. 8).
We extended the immunofluorescence studies to define the cell stage in the cells that were arrested by S2 or its analogs. Cells were also stained with anti-Aurora B antibody or anti-Survivin antibody in order to determine whether the localization of Survivin or Aurora B proteins are changed by these small molecules. Upon S2 or S12 treatment, we observed that cells accumulate in a stage with condensed chromosomes but without proper alignment of chromosomes on the mitotic plate (FIG. 9). The percentage of cells that progress to metaphase or beyond was reduced by S2 or S12 treatment (FIG. 9). […] Moreover, localization of Survivin to the midbody was also not affected.
Effects of the Survivin-targeting compound S12 on cell cycle progression was examined by immunofluorescence microscopy. HeLa cells were plated on coverglass and treated with S12 (40 μM) or with the solvent DMSO alone for 15 hours. […]

[3] = test system: AsPC1 tumor xenograft; assay: AsPC1 mouse xenograft tumor growth; format: in vivo, athymic mice
Procedure: FIG. 13 illustrates S12 inhibition of tumor growth in vivo. (A) AsPC1 cells were injected subcutaneously into the mid-dorsum of athymic mice. S12 was administered 10 days after the injection at the concentration of 5 mg/kg (blue triangles; middle line on the graph, n=4) or 15 mg/kg (red triangles; lower line on the graph; n=3). The control group was treated with PBS containing DMSO only (black square; upper line on the graph). The results represent the mean tumor volume+/− standard error (P<0.05). (B) In a second set of studies S12 was administered at the concentration of 15 mg/kg or 50 mg/kg (n=3). In both studies the control group was treated with PBS containing DMSO only. The results represented the mean tumor volume+/− standard error.
The effect of S12 on tumor growth was examined using a mouse xenograft model. The human pancreatic cell line AsPC1 was injected subcutaneously into athymic mice and formed palpable tumors within 10 days. S12 was then administered at the concentration of 5 mg/kg or 15 mg/kg three times per week until the end point of the experiment. The size of the tumors was monitored for up to 48 days after the initial grafting.

[4] = test system: HeLa cells; assay: Trypan blue exclusion cell death, synchronized vs unsynchronized HeLa; format: cell-based, human
Procedure: FIG. 12 illustrates S12 induction of caspase activation in HeLa cells. (A) HeLa cells were incubated with DMSO (control), S12, Taxol, nocodazole (Noco), or etoposide (Etop) for 12 hours. The cell lysates were analyzed by Western blot using the anti-PARP antibody (top panel), the anti-α-tubulin antibody (middle panel), or the anti-Survivin antibody (bottom panel). (B) S12 causes cell death in a cell cycle dependent manner. HeLa cells, either unsynchronized or synchronized by thymidine treatment were incubated either with S12 or DMSO. Cell death was quantitated by trypan blue exclusion assay.
We wanted to determine if the Survivin-targeting compounds induce cell death during mitosis but could not affect the phenotype or influence in other stages of the cell cycle. To this end, we blocked HeLa cells in the S phase by thymidine treatment and examined whether the cells were susceptible to cell death induced by S12. […] Thus, the current data support the notion that S12 induced death of cells is a consequence of mitotic arrest rather than general cytotoxicity and indicate a unique cell cycle specific functionality of Survivin in this process.

O=C(CC1(O)C(=O)Nc2ccc(Br)cc21)c1ccc2c(c1)OCO2 (stereo not shown) [S12]
reduction of cell viability [1]: equally effective at reducing cell viability | percentage of cells that progress to metaphase or beyond ([2]; 15 hours): reduced | formation of the mitotic spindle ([2]; 15 hours, immunofluorescence): can cause defects in formation of the mitotic spindle | localization of Survivin or Aurora B to the kinetochore ([2]; immunofluorescence): did not alter | localization of Survivin to the midbody ([2]; immunofluorescence): not affected | mitotic stage at which cells accumulate ([2]; immunofluorescence): arrested by S12 in an early stage of mitosis | tumor volume ([3]; 5 mg/kg or 15 mg/kg three times per week, up to 48 days): significantly lowered the tumor volume in a dose-dependent manner | tumor regression ([3]; dose raised to 50 mg/kg): enhancement of tumor regression | cell death of S phase-arrested cells ([4]; HeLa blocked in S phase by thymidine): insensitive | cell death of unsynchronized cells ([4]; unsynchronized HeLa): underwent apoptosis
